# Values quoted from earlier work in patent US20080200492A1, “METHODS FOR THE TREATMENT OF ALCOHOL ABUSE, ADDICTION AND DEPENDENCY” (priority 2006, published 2008).
# Test system: golden hamster
# Conditions: cited from earlier work
smiles,measurement,value
O=c1c(-c2ccc(O)cc2)coc2cc(O[C@@H]3O[C@H](CO)[C@@H](O)[C@H](O)[C@H]3O)ccc12 [Daidzin],"Alcohol drinking, water or food intake","decreases alcohol drinking in the golden hamster, without producing a decrease in water or food intake"
